Data from US20250129070A1, “BIFUNCTIONAL ANDROGEN RECEPTOR COMPOUNDS” (priority 2023, published 2025).

Columns and labels:
Format in all cases: cell-based
AR / CBP ternary complex = experiment: Ternary complex formation assay (sandwich ELISA, AR capture / CBP detection) in VCaP cell lysates; settings: 1.5 hours treatment, sandwich ELISA (AR capture, CBP or p300 detection)
Procedure, shortened: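 Anti-AR (AR 441)-coated plates capture AR from lysates of VCaP cells grown ≥3 days at 50K/well in 5% charcoal-stripped FBS, dosed with bifunctional for 1.5 h and lysed 30 min at 4 °C. Co-captured CBP/p300 is probed with rabbit mAb and HRP anti-rabbit, then QuantaRed fluorescence (570/585) is read at 0, 5 and 15 min.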

VCaP cells = experiment: VCaP growth inhibition assay; settings: 30 pM R1881, 9 days, CTG
Procedure, shortened: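 Growth read by CTG luminescence after 9-day exposure to compound (final 100 nM–10 fM, 1:5 steps) plus 30 pM R1881, in phenol red-free DMEM with 5% CSS. Cells pre-incubated 72 h before dosing; IC50 by nonlinear 4-parameter regression.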

HEK-293 cells = experiment: HEK-293 growth inhibition assay; settings: 3 days, CTG
Description: Cluster plates are returned to the incubator (37*C/5% CO2) for 24 hours prior to treatment. […] Cluster plates are returned to the incubator for 3 days.
After the 3-day treatment period, 100 uL media was removed from each well by aspiration and 100 uL room temperature CTG reagent (Promega Cat #G7573) is added back to each well. The cluster plates are placed on a shaker and incubated at room temperature for 20 minutes. Following this shaking/incubation, cluster plates are read on a luminometer (BMG ClarioStar). IC50 values are obtained by graphing the RLU data vs. compound concentration with nonlinear regression 4-parameter logistic curves (GraphPad Prism).

SMILES | EC50 (AR / CBP ternary complex) [nM] | IC50 (VCaP cells) [nM] | IC50 (HEK-293 cells) [nM]
CNC(=O)N1CCc2c(c(N3CCCc4cc(-c5cnn(C)c5)c(C(F)F)cc43)nn2C2CCN(Cc3ncc(C(=O)NC4C(C)(C)C(Oc5ccc(C#N)c(Cl)c5)C4(C)C)cn3)CC2)C1 (stereo not drawn) [Compound 91, 1-[1-[[5-[[3-(3-chloro-4-cyano-phenoxy)-2,2,4,4-tetramethyl-cyclobutyl]carbamoyl]pyrimidin-2-yl]methyl]-4-piperidyl]-3-[7-(difluoromethyl)-6-(1-methylpyrazol-4-yl)-3,4-dihydro-2H-quinolin-1-yl]-N-methyl-6,7-dihydro-4H-pyrazolo[4,3-c]pyridine-5-carboxamide] | > 100 | > 100 | > 10000
CC(=O)N1CCc2c(c(-c3cccc4cc(-c5ccc(C(=O)NCCCc6ncc(C(=O)NC7C(C)(C)C(Oc8ccc(C#N)c(Cl)c8)C7(C)C)cn6)nc5)ncc34)nn2C2CCOCC2)C1 (stereo not drawn) [Compound 77, 2-[3-[[5-[8-(5-acetyl-1-tetrahydropyran-4-yl-6,7-dihydro-4H-pyrazolo[4,3-c]pyridin-3-yl)-3-isoquinolyl]pyridine-2-carbonyl]amino]propyl]-N-[3-(3-chloro-4-cyano-phenoxy)-2,2,4,4-tetramethyl-cyclobutyl]pyrimidine-5-carboxamide] | < 1 | 0.1 to 1 | > 10000
CC(=O)N1CCc2c(c(N3CCCc4cc(-c5cnn(C)c5)c(C(F)F)cc43)nn2C2CCN(C(=O)C3CCN(c4ncc(C(=O)NC5C(C)(C)C(Oc6ccc(C#N)c(Cl)c6)C5(C)C)cn4)CC3)CC2)C1 (stereo not drawn) [Compound 22, 2-[4-[4-[5-acetyl-3-[7-(difluoromethyl)-6-(1-methylpyrazol-4-yl)-3,4-dihydro-2H-quinolin-1-yl]-6,7-dihydro-4H-pyrazolo[4,3-c]pyridin-1-yl]piperidine-1-carbonyl]-1-piperidyl]-N-[3-(3-chloro-4-cyano-phenoxy)-2,2,4,4-tetramethyl-cyclobutyl]pyrimidine-5-carboxamide] | < 1 | ≤ 0.1 | > 10000
CC(=O)N1CCc2c(c(N3CCCc4cc(-c5cnn(C)c5)c(C(F)F)cc43)nn2C2CCN(C(=O)OC3CCN(c4ncc(C(=O)NC5C(C)(C)C(Oc6ccc(C#N)c(Cl)c6)C5(C)C)cn4)CC3)CC2)C1 (stereo not drawn) [Compound 70, [1-[5-[[3-(3-chloro-4-cyano-phenoxy)-2,2,4,4-tetramethyl-cyclobutyl]carbamoyl]pyrimidin-2-yl]-4-piperidyl]4-[5-acetyl-3-[7-(difluoromethyl)-6-(1-methylpyrazol-4-yl)-3,4-dihydro-2H-quinolin-1-yl]-6,7-dihydro-4H-pyrazolo[4,3-c]pyridin-1-yl]piperidine-1-carboxylate] | < 1 | 0.1 to 1 | > 10000
CNC(=O)N1CCc2c(c(N3CCCc4cc(-c5cnn(C)c5)c(C(F)F)cc43)nn2C2CCN(C(=O)CCN3CCN(c4ncc(C(=O)NC5C(C)(C)C(Oc6ccc(C#N)c(Cl)c6)C5(C)C)cn4)CC3)CC2)C1 (stereo not drawn) [Compound 108, 1-[1-[3-[4-[5-[[3-(3-chloro-4-cyano-phenoxy)-2,2,4,4-tetramethyl-cyclobutyl]carbamoyl]pyrimidin-2-yl]piperazin-1-yl]propanoyl]-4-piperidyl]-3-[7-(difluoromethyl)-6-(1-methylpyrazol-4-yl)-3,4-dihydro-2H-quinolin-1-yl]-N-methyl-6,7-dihydro-4H-pyrazolo[4,3-c]pyridine-5-carboxamide] | < 1 | ≤ 0.1 | > 10000
COc1cc(OC2C(C)(C)C(NC(=O)c3cnc(N4CCC(CN5CCC(n6nc(N7CCCc8cc(-c9cnn(C)c9)c(C(F)F)cc87)c7c6CCN(C(C)=O)C7)CC5)C(C)(C)C4)nc3)C2(C)C)ccc1C#N (stereo not drawn) [Compound 360, 2-[4-[[4-[5-acetyl-3-[7-(difluoromethyl)-6-(1-methylpyrazol-4-yl)-3,4-dihydro-2H-quinolin-1-yl]-6,7-dihydro-4H-pyrazolo[4,3-c]pyridin-1-yl]-1-piperidyl]methyl]-3,3-dimethyl-1-piperidyl]-N-[3-(4-cyano-3-methoxy-phenoxy)-2,2,4,4-tetramethyl-cyclobutyl]pyrimidine-5-carboxamide] | < 1 | ≤ 0.1 | > 1000
